Measured values reported in publication PMC12266748, “A Xanthine Derivative With Novel Heat Shock Protein 90‐Alpha Inhibitory and Senolytic Properties” (Aging Cell, 2025).
Like-named read-outs stand apart in the source and are kept apart here.

What was measured:
[1] = system: WI38 cells; test: Dose-response curves on proliferating and replicative senescent WI38 (Trypan blue cell count); assay type: cell-based; conditions: for EC50: Homo sapiens, WI-38
Excerpt: IMR90 and WI38 lung fibroblasts were purchased from ECACC‐Merck. Human bone marrow (BM)‐derived mesenchymal stromal cells (MSCs) were purchased from Lonza. Human umbilical vein endothelial cells (HUVECs) are primary cells obtained from a pool of donors purchased from Clonetics (Lonza). Murine ear fibroblasts (MearFs) were obtained from C57BL/6J mice maintained in the INRCA “Specific Pathogen Free” (SPF) animal facility. MCF7 breast cancer cells were purchased from ATCC. For dose–response curves, IMR90 and WI38 were induced to senescence through replicative passages; MSCs, HUVECs, and MearFs senescence was induced with Doxorubicin; MCF7 senescence was induced with 4‐Hydroxytamoxifen (Lee et al. [2014]). The EC50 was calculated using GraphPad Prism 10 software. All treatment specifications are reported in the extended section.
Cell culture and treatment. IMR90 cells (Homo sapiens, fetal lung, fibroblast) and WI38 cells (Homo sapiens, fetal lung, fibroblast) were purchased from ECACC-Merck (Merck, Darmstadt, Germany) and cultured in MEM medium (Euroclone, Milano, Italy) supplemented with 1% L-Glutamine (Euroclone, Milano, Italy), 1% Penicillin-Streptomycin (Euroclone, Milano, Italy), and 10% Fetal Bovine Serum (FBS, Euroclone, Milano, Italy), at 37°C, 5% CO2. IMR90 cells with a population doubling (PD) from PD15 to PD23 were used; cells were considered incrementally senescent from passage PD19 to passage PD23. WI38 cells were used from PD26 to PD53. Cells were considered incrementally senescent from passage PD49 to passage PD53. For the compounds in vitro screening, IMR90 cells with passages from PD15 to PD23 were tested at increasing concentrations of 0.5 μM, 1 μM, 10 μM, and 25 μM over 24 and 48 h to evaluate the compounds' efficacy and cytotoxicity compared to the Vehicle (DMSO ≤ 0.1%). Cells were counted manually, in triplicate, using Trypan blue reagent (Euroclone) and disposable Bürker chambers. […] K5 dose-response proliferation curves were performed with compound K5 (Molport, SIA, Riga, Latvia) in concentrations 0.1, 0.5, 1, 5, 10, 50, 100, and 200 μM for 48 h. Cells were counted using a Trypan blue reagent and EVAplus cell counter. The EC50s were calculated by analyzing the data using GraphPad Prism 10 software.
MCF7 cell line (ATCC; HTB-22, Homo sapiens, breast cancer) was purchased from ATCC; cells were grown in MEM medium (Corning, New York, USA, #15-010-CVR) supplemented with 10% FBS (Gibco, Invitrogen, Carlsbad, CA, USA, #10270106), 1% glutamine (Corning #25005-CI), 1% penicillin and streptomycin (Corning #30002-CI). Cells were incubated at 37 °C with 5% CO2. Senescent status induction: MCF7 were plated 24 h before the treatment with 4-Hydroxytamoxifen (TAM) 10 μM to induce the senescence described by (Lee et al. 2014). Control cultures were treated with equal volumes of 75% ethanol as the vehicle. The treatment with TAM lasts 96 h, after which the cells have been washed and treated with the senolytic drugs K5 10 µM for another 96 h. The treatment with the senolytic compounds has been renewed at 48 h. Cell mortality and vitality curves after treatment with K5 (10 μM, orange) or Vehicle (DMSO, grey) were monitored using the Incucyte live-cell Analysis system (Sartorius, Goettingen, Germany). The estimated Senolytic index (SI) was calculated as the ratio between the EC50 in proliferating cells and the EC50 in senescent cells, extrapolated using GraphPad Prism 10 software.

[2] = system: WI38 cells; test: SA-β-galactosidase colorimetric assay on senescent WI38; assay type: cell-based, Homo sapiens
Procedure: Previously treated cells were fixed according to the protocols established by the supplier (Cell Signaling). The images were acquired using an optical microscope (Leica) with 5× and 10× magnification (MAG) or the phase microscopy EVOS XL Core at 10× MAG and analyzed using the ImageJ software. The mean signal intensity was then normalized for the total number of cells.
β-galactosidase colorimetric assay. For cell cultures: Previously treated cells were fixed with the fixative solution for 10 min at RT according to the protocols established by the supplier (Senescence β-Galactosidase Staining Kit, #9860S, Cell Signaling, Danvers, MA, USA) Cells were then incubated with the substrate, X-gal, in a solution at pH 6, at 37°C, overnight (16 h) (Itahana et al. 2007). The images were acquired using an optical microscope (Leica, Wetzlar, Germany) with 5 and 10X magnification or the phase microscopy EVOS XL Core at 10X magnification. The images were analyzed using the ImageJ software, quantifying the colorimetric signal emitted by each cell. The mean signal intensity was then normalized for the total number of cells.

`Cc1ccccc1-n1c(=O)n(Cc2ccccc2)c(=O)c2[nH]cnc21` [Compound K5, 1-benzyl-3-(2-methylphenyl)-7H-purine-2,6-dione] was tested, and the EC50 ([1]; WI38, Replicative/passages, read-out: EC50 senescent cells) was 0.65 µM, the EC50 ([1]; WI38, read-out: EC50 proliferating cells) was > 500 µM and the “Senolytic evidence (no, partly/yes)” value ([1]; WI38, Replicative/passages) was “Yes”. The “Senolytic index (estimated)” value ([1]; WI38, SI = EC50 in proliferating cells/EC50 senescent cells) was > 770, the “toxicity in proliferating cells” value ([1]; proliferating WI38 (PD29), 100 nM to 200 μM, 48 h) was “no evident toxicity” and the “reduced SA-β-gal+ cells” value [2] was 10%.
